# From PubChem BioAssay (NCI)
#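 Where inhibition never reached the appropriate level, the endpoint shown equals the highest concentration tested. Otherwise, values were interpolated linearly from a five-concentration, 48-hour dose response in 96-well plates. At the TGI there is no net growth.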
# Columns and labels:
# Experiment in all cases: DTP human tumour cell line panel, 48 h
# HOP-62 NSCLC = test system: HOP-62 NSCLC
# SF-295 CNS = test system: SF-295 CNS
# SN12C renal = test system: SN12C renal
# CCRF-CEM leukemia = test system: CCRF-CEM leukemia
# MALME-3M melanoma = test system: MALME-3M melanoma
# UO-31 renal = test system: UO-31 renal
# LOX IMVI melanoma = test system: LOX IMVI melanoma
# OVCAR-4 ovarian = test system: OVCAR-4 ovarian
# SNB-75 CNS = test system: SNB-75 CNS
# SNB-78 CNS = test system: SNB-78 CNS
# HL-60(TB) leukemia = test system: HL-60(TB) leukemia
# A498 renal = test system: A498 renal
# KM20L2 colon = test system: KM20L2 colon
# COLO 205 colon = test system: COLO 205 colon
# UACC-62 melanoma = test system: UACC-62 melanoma
# HOP-18 NSCLC = test system: HOP-18 NSCLC
# HCC-2998 colon = test system: HCC-2998 colon
# OVCAR-3 ovarian = test system: OVCAR-3 ovarian
# DLD-1 colon = test system: DLD-1 colon
# NCI-H522 lung = test system: NCI-H522 lung
# HCT-116 colon = test system: HCT-116 colon
# IGROV1 ovarian = test system: IGROV1 ovarian
# SK-MEL-2 melanoma = test system: SK-MEL-2 melanoma
# NCI-H23 lung = test system: NCI-H23 lung
# SK-MEL-28 melanoma = test system: SK-MEL-28 melanoma
# TK-10 renal = test system: TK-10 renal
# DMS 114 small cell lung = test system: DMS 114 small cell lung
# HOP-92 NSCLC = test system: HOP-92 NSCLC
# K-562 leukemia = test system: K-562 leukemia
# KM12 colon = test system: KM12 colon
# RPMI-8226 leukemia = test system: RPMI-8226 leukemia
# M19-MEL melanoma = test system: M19-MEL melanoma
# SK-MEL-5 melanoma = test system: SK-MEL-5 melanoma
# M14 melanoma = test system: M14 melanoma
# OVCAR-5 ovarian = test system: OVCAR-5 ovarian
# EKVX NSCLC = test system: EKVX NSCLC
# 786-0 renal = test system: 786-0 renal
# RXF-631 renal = test system: RXF-631 renal
# U251 CNS = test system: U251 CNS
# SK-OV-3 ovarian = test system: SK-OV-3 ovarian
# OVCAR-8 ovarian = test system: OVCAR-8 ovarian
# SNB-19 CNS = test system: SNB-19 CNS
# SR leukemia = test system: SR leukemia
# UACC-257 melanoma = test system: UACC-257 melanoma
# SW-620 colon = test system: SW-620 colon
# ACHN renal = test system: ACHN renal
# NCI-H226 lung = test system: NCI-H226 lung
# CAKI-1 renal = test system: CAKI-1 renal
# HCT-15 colon = test system: HCT-15 colon
# A549 NSCLC = test system: A549 NSCLC
# NCI-H460 lung = test system: NCI-H460 lung
# SF-268 CNS = test system: SF-268 CNS
# RXF 393 renal = test system: RXF 393 renal
# MOLT-4 leukemia = test system: MOLT-4 leukemia
# DMS 273 small cell lung = test system: DMS 273 small cell lung
# HT29 colon = test system: HT29 colon
# SF-539 CNS = test system: SF-539 CNS
# LXFL 529 NSCLC = test system: LXFL 529 NSCLC
# XF 498 CNS = test system: XF 498 CNS
structure (smiles),measurement,setting,value
NC1=NN(c2ccccc2)C(=O)C1C(=O)C(=O)Nc1nccs1 (configuration not stated),TGI,HOP-62 NSCLC,> 100 µM
same,TGI,SF-295 CNS,> 100 µM
same,TGI,SN12C renal,> 100 µM
same,TGI,CCRF-CEM leukemia,> 100 µM
same,TGI,MALME-3M melanoma,> 100 µM
same,TGI,UO-31 renal,> 100 µM
same,TGI,LOX IMVI melanoma,> 100 µM
same,TGI,OVCAR-4 ovarian,> 100 µM
same,TGI,SNB-75 CNS,> 100 µM
same,TGI,SNB-78 CNS,> 100 µM
same,TGI,HL-60(TB) leukemia,> 100 µM
same,TGI,A498 renal,> 100 µM
same,TGI,KM20L2 colon,> 100 µM
same,TGI,COLO 205 colon,> 100 µM
same,TGI,UACC-62 melanoma,> 100 µM
same,TGI,HOP-18 NSCLC,> 100 µM
same,TGI,HCC-2998 colon,> 100 µM
same,TGI,OVCAR-3 ovarian,> 100 µM
same,TGI,DLD-1 colon,> 100 µM
same,TGI,NCI-H522 lung,> 100 µM
same,TGI,HCT-116 colon,> 100 µM
same,TGI,IGROV1 ovarian,> 100 µM
same,TGI,SK-MEL-2 melanoma,> 100 µM
same,TGI,NCI-H23 lung,> 100 µM
same,TGI,SK-MEL-28 melanoma,> 100 µM
same,TGI,TK-10 renal,> 100 µM
same,TGI,DMS 114 small cell lung,> 100 µM
same,TGI,HOP-92 NSCLC,> 100 µM
same,TGI,K-562 leukemia,> 100 µM
same,TGI,KM12 colon,> 100 µM
same,TGI,RPMI-8226 leukemia,> 100 µM
same,TGI,M19-MEL melanoma,> 100 µM
same,TGI,SK-MEL-5 melanoma,> 100 µM
same,TGI,M14 melanoma,> 100 µM
same,TGI,OVCAR-5 ovarian,> 100 µM
same,TGI,EKVX NSCLC,> 100 µM
same,TGI,786-0 renal,> 100 µM
same,TGI,RXF-631 renal,> 100 µM
same,TGI,U251 CNS,> 100 µM
same,TGI,SK-OV-3 ovarian,> 100 µM
same,TGI,OVCAR-8 ovarian,> 100 µM
same,TGI,SNB-19 CNS,> 100 µM
same,TGI,SR leukemia,> 100 µM
same,TGI,UACC-257 melanoma,> 100 µM
same,TGI,SW-620 colon,> 100 µM
same,TGI,ACHN renal,> 100 µM
same,TGI,NCI-H226 lung,> 100 µM
same,TGI,CAKI-1 renal,> 100 µM
same,TGI,HCT-15 colon,> 100 µM
same,TGI,A549 NSCLC,> 100 µM
same,TGI,NCI-H460 lung,> 100 µM
same,TGI,SF-268 CNS,> 100 µM
same,TGI,RXF 393 renal,> 100 µM
same,TGI,MOLT-4 leukemia,> 100 µM
same,TGI,DMS 273 small cell lung,> 100 µM
same,TGI,HT29 colon,> 100 µM
same,TGI,SF-539 CNS,> 100 µM
same,TGI,LXFL 529 NSCLC,> 100 µM
Clc1ccc(C[P+]2(c3ccccc3)CCCCC2)cc1,TGI,HOP-62 NSCLC,> 100 µM
same,TGI,SF-295 CNS,> 100 µM
same,TGI,SN12C renal,> 100 µM
same,TGI,CCRF-CEM leukemia,> 100 µM
same,TGI,MALME-3M melanoma,> 100 µM
same,TGI,UO-31 renal,> 100 µM
same,TGI,LOX IMVI melanoma,> 100 µM
same,TGI,SNB-75 CNS,> 100 µM
same,TGI,SNB-78 CNS,> 100 µM
same,TGI,HL-60(TB) leukemia,93.9 µM
same,TGI,A498 renal,> 100 µM
same,TGI,KM20L2 colon,> 100 µM
same,TGI,COLO 205 colon,> 100 µM
same,TGI,UACC-62 melanoma,> 100 µM
same,TGI,HOP-18 NSCLC,> 100 µM
same,TGI,HCC-2998 colon,> 100 µM
same,TGI,OVCAR-3 ovarian,> 100 µM
same,TGI,DLD-1 colon,> 100 µM
same,TGI,NCI-H522 lung,> 100 µM
same,TGI,HCT-116 colon,> 100 µM
same,TGI,IGROV1 ovarian,> 100 µM
same,TGI,SK-MEL-2 melanoma,> 100 µM
same,TGI,NCI-H23 lung,> 100 µM
same,TGI,SK-MEL-28 melanoma,> 100 µM
same,TGI,TK-10 renal,> 100 µM
same,TGI,DMS 114 small cell lung,> 100 µM
same,TGI,K-562 leukemia,> 100 µM
same,TGI,KM12 colon,> 100 µM
same,TGI,RPMI-8226 leukemia,> 100 µM
same,TGI,M19-MEL melanoma,> 100 µM
same,TGI,SK-MEL-5 melanoma,43.3 µM
same,TGI,M14 melanoma,> 100 µM
same,TGI,OVCAR-5 ovarian,> 100 µM
same,TGI,EKVX NSCLC,> 100 µM
same,TGI,786-0 renal,> 100 µM
same,TGI,U251 CNS,> 100 µM
same,TGI,SK-OV-3 ovarian,> 100 µM
same,TGI,OVCAR-8 ovarian,> 100 µM
same,TGI,SNB-19 CNS,> 100 µM
same,TGI,SR leukemia,> 100 µM
same,TGI,UACC-257 melanoma,89.5 µM
same,TGI,SW-620 colon,> 100 µM
same,TGI,ACHN renal,> 100 µM
same,TGI,NCI-H226 lung,> 100 µM
same,TGI,HCT-15 colon,> 100 µM
same,TGI,A549 NSCLC,> 100 µM
same,TGI,NCI-H460 lung,> 100 µM
same,TGI,RXF 393 renal,> 100 µM
same,TGI,MOLT-4 leukemia,> 100 µM
same,TGI,DMS 273 small cell lung,> 100 µM
same,TGI,HT29 colon,> 100 µM
same,TGI,XF 498 CNS,86.7 µM
same,TGI,SF-539 CNS,> 100 µM
same,TGI,LXFL 529 NSCLC,> 100 µM
